# Source: US4272437A, “Antibacterial agents, and 4-thio azetidinone intermediates” (priority 1979, dated 1981)
# Read-outs that look alike come from different tables or passages of the source.
# Assays:
# K. pneumoniae A15130 = test: In vivo protection of mice, lethal infection with K. pneumoniae A15130; conditions: Klebsiella pneumoniae, IM, 2 treatments, 1.2 × 10^3 organisms, read-out: PD50
# Procedure: (§1) Representative compounds of the present invention were also tested in vivo in mice and their PD50 (dose of compound in mg/kg required to protect 50% of the treated mice against an otherwise lethal infection of a micro-organism) values determined with respect to the test organisms shown below.
# S. pyogenes A9604 = test: In vivo protection of mice, lethal infection with S. pyogenes A9604; conditions: Streptococcus pyogenes, A9604, im, 2 treatments, read-out: PD50
# Procedure: as §1
# S. aureus A9606 = test: In vivo protection of mice, lethal infection with S. aureus A9606; conditions: Staphylococcus aureus, IM, 2 treatments, 8 × 10^8 organisms, read-out: PD50
# Procedure: as §1
# Ps. aeruginosa A-21213 = test: MIC, tube dilution, Pseudomonas aeruginosa A21213; format: cell-based; conditions: Pseudomonas aeruginosa A21213; overnight 37° C.; read-out: Minimum Inhibitory Concentration (M.I.C.)
# Text: (§2) Representative compounds of the present invention were subjected to in vitro antibiotic screening against a variety of microorganisms.
# Ps. aeruginosa A-9843A = test: MIC, tube dilution, Pseudomonas aeruginosa A9843A; format: cell-based; conditions: Pseudomonas aeruginosa, A9843A, read-out: Minimum Inhibitory Concentration (M.I.C.), Pseudomonas aeruginosa A9843A; overnight 37° C.
# Text: as §2
# E. coli A-20341-1 = test: MIC, tube dilution, Escherichia coli A20341-1; format: cell-based; conditions: Escherichia coli, A203411; E. coli A20341-1; overnight 37° C.; read-out: Minimum Inhibitory Concentration (M.I.C.)
# Text: as §2
# S. pneumoniae A9585 = test: In vivo protection of mice, lethal infection with S. pneumoniae A9585; conditions: Streptococcus pneumoniae, A9585, im, 2 treatments, read-out: PD50
# Procedure: as §1
# Proteus rettgeri A21203 = test: MIC, tube dilution, Proteus rettgeri A21203; format: cell-based; conditions: Providencia rettgeri, A21203, Proteus rettgeri A21203; overnight 37° C.; read-out: Minimum Inhibitory Concentration (M.I.C.)
# Text: as §2
# Ser. marcescens A-20019 = test: MIC, tube dilution, Serratia marcescens A20019; format: cell-based; conditions: Serratia marcescens, A20019, Serratia marcescens A20019; overnight 37° C.; read-out: Minimum Inhibitory Concentration (M.I.C.)
# Text: as §2
# Staph. aureus A-9537 = test: MIC, tube dilution, Staphylococcus aureus A9537; format: cell-based; conditions: Staphylococcus aureus, A9537, Staph. aureus A9537; overnight 37° C., Nutrient Broth; read-out: Minimum Inhibitory Concentration (M.I.C.)
# Text: as §2
# Ent. cloacae A-9656 = test: MIC, tube dilution, Enterobacter cloacae A9656; format: cell-based; conditions: Enterobacter cloacae, A9656, Enterobacter cloacae A9656; overnight 37° C.; read-out: Minimum Inhibitory Concentration (M.I.C.)
# Text: as §2
# [1] = tested on: Staph. aureus A-9537 and 50% serum; test: MIC, tube dilution, Staph. aureus A9537 + 50% serum; format: cell-based, Staphylococcus aureus; conditions: Staphylococcus aureus, overnight 37° C., read-out: Minimum Inhibitory Concentration (M.I.C.)
# Text: as §2
# Str. pneumoniae A-9585 = test: MIC, tube dilution, Streptococcus pneumoniae A9585; format: cell-based; conditions: Streptococcus pneumoniae, A9585, Str. pneumoniae A9585; overnight 37° C., Nutrient Broth; read-out: Minimum Inhibitory Concentration (M.I.C.)
# Text: as §2
# Ent. cloacae A-9659 = test: MIC, tube dilution, Enterobacter cloacae A9659; format: cell-based; conditions: Enterobacter cloacae, A9659, Enterobacter cloacae A9659; overnight 37° C.; read-out: Minimum Inhibitory Concentration (M.I.C.)
# Text: as §2
# Str. faecalis A-20688 = test: MIC, tube dilution, Streptococcus faecalis A20688; format: cell-based; conditions: Enterococcus faecalis, A20688, Str. faecalis A20688; overnight 37° C.; read-out: Minimum Inhibitory Concentration (M.I.C.)
# Text: as §2
# [2] = tested on: Staph. aureus (Pen-Res) A-9606; test: MIC, tube dilution, Staphylococcus aureus A9606 (Pen-Res); format: cell-based; conditions: Staphylococcus aureus, Staph. aureus A9606 (Pen-Res); overnight 37° C.; read-out: Minimum Inhibitory Concentration (M.I.C.)
# Text: as §2
# Pr. mirabilis A-9900 = test: MIC, tube dilution, Proteus mirabilis A9900; format: cell-based; conditions: Proteus mirabilis, A9900, Proteus mirabilis A9900; overnight 37° C.; read-out: Minimum Inhibitory Concentration (M.I.C.)
# Text: as §2
# [3] = tested on: Staph. aureus (Meth-Res) A-15097; test: MIC, tube dilution, Staphylococcus aureus A15097 (Meth-Res); format: cell-based; conditions: Staphylococcus aureus, Staph. aureus A15097 (Meth-Res); overnight 37° C.; read-out: Minimum Inhibitory Concentration (M.I.C.)
# Text: as §2
# Pr. morganii A-15153 = test: MIC, tube dilution, Proteus morganii A15153; format: cell-based; conditions: Morganella morganii, A15153, Proteus morganii A15153; overnight 37° C.; read-out: Minimum Inhibitory Concentration (M.I.C.)
# Text: as §2
# K. pneumoniae A-15130 = test: MIC, tube dilution, Klebsiella pneumoniae A15130; format: cell-based; conditions: Klebsiella pneumoniae, A15130, K. pneumoniae A15130; overnight 37° C.; read-out: Minimum Inhibitory Concentration (M.I.C.)
# Text: as §2
# E. coli A-15119 = test: MIC, tube dilution, Escherichia coli A15119; format: cell-based; conditions: Escherichia coli, A15119, E. coli A15119; overnight 37° C.; read-out: Minimum Inhibitory Concentration (M.I.C.)
# Text: as §2
# Proteus mirabilis A9900 = test: In vivo protection of mice, lethal infection with Proteus mirabilis A9900; conditions: IM, 2 treatments, 1.3 × 10^7 organisms, read-out: PD50
# Procedure: as §1
# [4] = tested on: Klebsiella species A20468; test: MIC, tube dilution, Klebsiella species A20468; format: cell-based; conditions: Klebsiella species (K. pneumoniae) A20468; overnight 37° C.; read-out: Minimum Inhibitory Concentration (M.I.C.)
# Text: as §2
# E. coli A15119 = test: In vivo protection of mice, lethal infection with E. coli A15119; conditions: Escherichia coli, IM, 2 treatments, 7.4 × 10^5 organisms, read-out: PD50
# Procedure: as §1
# [5] = Mouse blood levels after intramuscular administration; format: in vivo; conditions: average of 6 mice, read-out: Mouse blood level
# Procedure: Mouse blood levels after intramuscular administration of representative compounds of the present invention were determined and are reported in the table below.
compound,measurement,setting,value
"NCCCCC1=C(C(=O)O)N2C(=O)CC2S1 (stereo not drawn) [Example 73, 2-(4'-Aminobutyl)-penem-3-carboxylic Acid]",ED50,K. pneumoniae A15130,> 100 mg/kg
same,ED50,S. pyogenes A9604; 1.2 × 10^3 organisms,0.89 mg/kg
same,ED50,S. pyogenes A9604; 8 × 10^3 organisms,0.51 mg/kg
same,ED50,S. aureus A9606,6.3 mg/kg
same,MIC,Ps. aeruginosa A-21213,> 125 µg/mL
same,MIC,Ps. aeruginosa A-9843A,> 125 µg/mL
same,MIC,E. coli A-20341-1,125 µg/mL
same,ED50,S. pneumoniae A9585; 3 × 10^4 organisms,1.2 mg/kg
same,ED50,S. pneumoniae A9585; 3.4 × 10^4 organisms,1.56 mg/kg
same,MIC,Proteus rettgeri A21203,16 µg/mL
same,MIC,Ser. marcescens A-20019,16 µg/mL
same,MIC,Staph. aureus A-9537,0.25 µg/mL
same,MIC,Ent. cloacae A-9656,32 µg/mL
same,MIC,[1],1 µg/mL
same,MIC,Str. pneumoniae A-9585,0.13 µg/mL
same,MIC,Ent. cloacae A-9659,63 µg/mL
same,MIC,Str. faecalis A-20688,32 µg/mL
same,MIC,[2],32 µg/mL
same,MIC,Pr. mirabilis A-9900,8 µg/mL
same,MIC,[3],16 µg/mL
same,MIC,Pr. morganii A-15153,32 µg/mL
same,MIC,K. pneumoniae A-15130,32 µg/mL
same,MIC,E. coli A-15119,8 µg/mL
same,ED50,Proteus mirabilis A9900,> 100 mg/kg
same,MIC,[4],> 125 µg/mL
same,ED50,E. coli A15119,25 mg/kg
same,concentration at 10 min,[5]; 10 minutes after IM 40 mg/kg,37900 ng/mL
same,concentration at 20 min,[5]; 20 minutes after IM 40 mg/kg,30800 ng/mL
same,concentration at 0.5 h,[5]; 30 minutes after IM 40 mg/kg,21200 ng/mL
same,concentration at 0.75 h,[5]; 45 minutes after IM 40 mg/kg,13200 ng/mL
same,concentration at 1 h,[5]; 60 minutes after IM 40 mg/kg,8400 ng/mL
same,concentration at 1.5 h,[5]; 90 minutes after IM 40 mg/kg,3400 ng/mL
same,concentration at 2 h,[5]; 120 minutes after IM 40 mg/kg,< 3000 ng/mL
